{"source": "patent US20250332160A1", "about": "“COMPOSITION CONTAINING ARIPIPRAZOLE AS ACTIVE INGREDIENT FOR ENHANCING ANTICANCER EFFECT OF ERK INHIBITOR” (KOREA INSTITUTE OF RADIOLOGICAL & MEDICAL SCIENCES, priority 2022, published 2025)", "key": {"[1]": {"tested_on": "PUMA", "assay": "Expression of PUMA protein in COLO 205 cells, Western blot", "type": "cell-based", "conditions": "eight hours after treatment, Western blot (FIG. 1)", "protocol": "(§1) To identify an effect of aripiprazole on the expression of NOXA and PUMA proteins in cancer cells, COLO 205 cells were treated with aripiprazole. Eight hours later, proteins were extracted from cells after washing with PBS, and a level of NOXA and PUMA expression was checked via Western blot."}, "[2]": {"tested_on": "NOXA", "assay": "Expression of NOXA protein in COLO 205 cells, Western blot", "type": "cell-based", "conditions": "eight hours after treatment, Western blot (FIG. 1)", "protocol": "as §1"}}, "data": [{"smiles": "O=C1CCc2ccc(OCCCCN3CCN(c4cccc(Cl)c4Cl)CC3)cc2N1", "note": "[aripiprazole]", "values": [{"measurement": "expression of PUMA protein", "setting": "[1]", "result": "increased"}, {"measurement": "expression of NOXA protein", "setting": "[2]", "result": "increased"}]}]}
